From patent US12157746B2, “Tetrahydro-1H-pyrazino[2,1-a]isoindolylquinoline compounds for the treatment of autoimmune disease” (F. HOFFMANN-LA ROCHE AG, priority 2018, dated 2024)

These compounds were tested against T1, human TLR8 (Homo sapiens, UniProt Q9NR97) (assay: HEK293-Blue-hTLR-8 cells assay). Settings: HEK293-Blue-hTLR8 cells, R848 stimulation, 20 hrs, SEAP reporter; read-out: HEK/hTLR8 IC50.
T1 sequence (Q9NR97 27-1041): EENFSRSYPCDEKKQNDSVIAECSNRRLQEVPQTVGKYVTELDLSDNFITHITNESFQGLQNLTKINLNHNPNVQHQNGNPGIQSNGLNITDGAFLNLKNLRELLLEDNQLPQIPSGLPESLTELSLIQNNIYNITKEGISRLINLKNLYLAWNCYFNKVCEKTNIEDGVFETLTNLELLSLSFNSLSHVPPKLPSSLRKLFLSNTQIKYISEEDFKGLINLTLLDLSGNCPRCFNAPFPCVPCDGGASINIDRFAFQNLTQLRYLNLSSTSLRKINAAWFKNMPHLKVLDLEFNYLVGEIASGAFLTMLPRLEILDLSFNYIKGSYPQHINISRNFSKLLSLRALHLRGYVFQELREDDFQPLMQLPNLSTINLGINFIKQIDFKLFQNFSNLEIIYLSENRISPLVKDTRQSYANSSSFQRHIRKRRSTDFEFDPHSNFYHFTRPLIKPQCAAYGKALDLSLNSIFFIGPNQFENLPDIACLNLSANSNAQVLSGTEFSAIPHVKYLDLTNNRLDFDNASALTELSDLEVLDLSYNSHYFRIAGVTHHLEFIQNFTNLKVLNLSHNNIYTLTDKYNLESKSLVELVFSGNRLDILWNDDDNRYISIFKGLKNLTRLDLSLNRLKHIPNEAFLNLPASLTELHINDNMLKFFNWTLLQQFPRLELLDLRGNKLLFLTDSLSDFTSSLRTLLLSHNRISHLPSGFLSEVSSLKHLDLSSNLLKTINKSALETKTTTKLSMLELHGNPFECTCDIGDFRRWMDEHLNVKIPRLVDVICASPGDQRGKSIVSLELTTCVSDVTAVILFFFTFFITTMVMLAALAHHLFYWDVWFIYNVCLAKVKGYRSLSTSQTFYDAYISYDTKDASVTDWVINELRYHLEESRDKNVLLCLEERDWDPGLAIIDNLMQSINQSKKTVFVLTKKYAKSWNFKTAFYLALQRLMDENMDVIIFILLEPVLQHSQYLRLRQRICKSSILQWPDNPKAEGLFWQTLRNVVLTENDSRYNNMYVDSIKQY
Type: cell-based
Procedure, shortened: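 Antagonism read out in HEK293-Blue-hTLR8 cells carrying an NF-κB/AP-1-driven SEAP reporter, stimulated with R848 (10 μL of 60 uM stock added) alongside serially diluted compound (1% DMSO), 20 h at 37° C. Supernatant SEAP measured with QUANTI-Blue after 2 h at 37° C, absorbance at 620-655 nm.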

| SMILES | IC50 |
| --- | --- |
| N#Cc1ccc(N2CCN3Cc4cc(N5CCNCC5)ccc4C3C2)c2cccnc12 (centres unmarked) [Example 3, 5-(8-piperazin-1-yl-3,4,6,10b-tetrahydro-1H-pyrazino[2,1-a]isoindol-2-yl)quinoline-8-carbonitrile] | < 3.2 nM |
| C[C@@H]1CN(c2ccc(C#N)c3ncccc23)C[C@@H]2c3ccc(NCCN4CC[C@H](O)C4)cc3CN12 [Example 68, 5-[(4R,10bS)-8-[2-[(3S)-3-hydroxypyrrolidin-1-yl]ethylamino]-4-methyl-3,4,6,10b-tetrahydro-1H-pyrazino[2,1-a]isoindol-2-yl]quinoline-8-carbonitrile] | < 3.2 nM |
| C[C@@H]1CN(c2ccc(C#N)c3ncccc23)C[C@@H]2c3cc(F)c(N4CC5(CNC5)C4)cc3CN12 [Example 84, 5-[(4R,10bS)-8-(2,6-diazaspiro[3.3]heptan-2-yl)-9-fluoro-4-methyl-3,4,6,10b-tetrahydro-1H-pyrazino[2,1-a]isoindol-2-yl]quinoline-8-carbonitrile] | 1.3 nM |
| C[C@@H]1CN(c2ccc(C#N)c3ncccc23)C[C@@H]2c3ccc(N[C@@H]4CNCCOC4)cc3CN12 [Example 56A, 5-[(4R,10bS)-4-methyl-8-[[(6R)-1,4-oxazepan-6-yl]amino]-3,4,6,10b-tetrahydro-1H-pyrazino[2,1-a]isoindol-2-yl]quinoline-8-carbonitrile] | < 3.2 nM |
| C[C@@H]1CN(c2ccc(C#N)c3ncsc23)C[C@@H]2c3ccc(N[C@H]4CNC[C@H]4F)cc3CN12 [Example 78, 7-[(4R,10bS)-8-[[(3S,4R)-4-fluoropyrrolidin-3-yl]amino]-4-methyl-3,4,6,10b-tetrahydro-1H-pyrazino[2,1-a]isoindol-2-yl]-1,3-benzothiazole-4-carbonitrile] | 0.4 nM |
| C[C@@H]1CN(c2ccc(C#N)c3ncccc23)C[C@@H]2c3ccc(N4C[C@@H]5CNCCN5C4=O)cc3CN12 [Example 71, 5-[(4R,10bS)-8-[(8aS)-3-oxo-1,5,6,7,8,8a-hexahydroimidazo[1,5-a]pyrazin-2-yl]-4-methyl-3,4,6,10b-tetrahydro-1H-pyrazino[2,1-a]isoindol-2-yl]quinoline-8-carbonitrile] | < 3.2 nM |
| C[C@@H]1CN(c2ccc(C#N)c3ncccc23)C[C@@H]2c3cccc(N[C@H]4CNC[C@H]4F)c3CN12 [Example 81, 5-[(4R,10bS)-7-[[(3S,4R)-4-fluoropyrrolidin-3-yl]amino]-4-methyl-3,4,6,10b-tetrahydro-1H-pyrazino[2,1-a]isoindol-2-yl]quinoline-8-carbonitrile] | < 3.2 nM |
| C[C@@H]1CN(c2ccc(Cl)c3ncccc23)C[C@@H]2c3ccc(N[C@H]4CNC[C@H]4F)cc3CN12 [Example 79, (4R,10b)-2-(8-chloro-5-quinolyl)-N-[(3S,4R)-4-fluoropyrrolidin-3-yl]-4-methyl-3,4,6,10b-tetrahydro-1H-pyrazino[2,1-a]isoindol-8-amine] | 2.8 nM |
| CO[C@H]1CNC[C@@H]1N(C)c1ccc2c(c1)CN1[C@H](C)CN(c3ccc(C#N)c4ncccc34)C[C@H]21 [Example 64, 5-[(4R,10bS)-8-[[(3S,4S)-4-methoxypyrrolidin-3-yl]-methyl-amino]-4-methyl-3,4,6,10b-tetrahydro-1H-pyrazino[2,1-a]isoindol-2-yl]quinoline-8-carbonitrile] | < 3.2 nM |
| C[C@@H]1CN(c2ccc(C#N)c3ncccc23)C[C@@H]2c3ccc(NC[C@H]4CNCCO4)cc3CN12 [Example 59, 5-[(4R,10bS)-4-methyl-8-[[(2R)-morpholin-2-yl]methylamino]-3,4,6,10b-tetrahydro-1H-pyrazino[2,1-a]isoindol-2-yl]quinoline-8-carbonitrile] | < 3.2 nM |
| C[C@@H]1CN(c2ccc(C#N)c3ncccc23)C[C@@H]2c3ccc(C(=O)N4CCC(C)(N)CC4)cc3CN12 [Example 88, 5-[(4R,10bS)-8-(4-amino-4-methyl-piperidine-1-carbonyl)-4-methyl-3,4,6,10b-tetrahydro-1H-pyrazino[2,1-a]isoindol-2-yl]quinoline-8-carbonitrile] | 0.7 nM |
| CO[C@@H]1CNC[C@H]1Nc1cc2c(cc1C)[C@H]1CN(c3ccc(C#N)c4ncccc34)C[C@@H](C)N1C2 [Example 63, 5-[(4R,10bS)-8-[[(3R,4R)-4-methoxypyrrolidin-3-yl]amino]-4,9-dimethyl-3,4,6,10b-tetrahydro-1H-pyrazino[2,1-a]isoindol-2-yl]quinoline-8-carbonitrile] | 6.2 nM |
| C[C@@H]1CN(c2ccc(C#N)c3ncccc23)C[C@@H]2c3ccc(N[C@H]4CNCCOC4)cc3CN12 [Example 56B, 5-[(4R,10bS)-4-methyl-8-[[(6S)-1,4-oxazepan-6-yl]amino]-3,4,6,10b-tetrahydro-1H-pyrazino[2,1-a]isoindol-2-yl]quinoline-8-carbonitrile] | < 3.2 nM |
| C[C@@H]1CN(c2ccc(C#N)c3ncccc23)C[C@@H]2c3ccc(N4C[C@H]5CNCCN5C4=O)cc3CN12 [Example 72, 5-[(4R,10bS)-8-[(8aR)-3-oxo-1,5,6,7,8,8a-hexahydroimidazo[1,5-a]pyrazin-2-yl]-4-methyl-3,4,6,10b-tetrahydro-1H-pyrazino[2,1-a]isoindol-2-yl]quinoline-8-carbonitrile] | < 3.2 nM |
| C[C@@H]1CN(c2ccc(C#N)c3ncccc23)C[C@@H]2c3ccc(N[C@@H]4CCCNC4)cc3CN12 [Example 65, 5-[(4R,10bS)-4-methyl-8-[[(3R)-3-piperidyl]amino]-3,4,6,10b-tetrahydro-1H-pyrazino[2,1-a]isoindol-2-yl]quinoline-8-carbonitrile] | < 3.2 nM |
| C[C@@H]1CN(c2ccc(C#N)c3ncccc23)C[C@@H]2c3cc(F)c(N4C[C@H](N)[C@@](C)(O)C4)cc3CN12 [Example 83, 5-[(4R,10bS)-8-[(3S,4S)-4-amino-3-hydroxy-3-methyl-pyrrolidin-1-yl]-9-fluoro-4-methyl-3,4,6,10b-tetrahydro-1H-pyrazino[2,1-a]isoindol-2-yl]quinoline-8-carbonitrile] | 1 nM |
| CO[C@H]1CNC[C@H]1Nc1ccc2c(c1)CN1[C@H](C)CN(c3ccc(C#N)c4ncccc34)C[C@H]21 [Example 61, 5-[(4R,10bS)-8-[[(3R,4S)-4-methoxypyrrolidin-3-yl]amino]-4-methyl-3,4,6,10b-tetrahydro-1H-pyrazino[2,1-a]isoindol-2-yl]quinoline-8-carbonitrile] | < 3.2 nM |
| C[C@@H]1CN(c2ccc(C#N)c3ncccc23)C[C@@H]2c3ccc(NCC4COCCN4)cc3CN12 (stereo partly drawn) [Example 57, 5-[(4R,10bS)-4-methyl-8-(morpholin-3-ylmethylamino)-3,4,6,10b-tetrahydro-1H-pyrazino[2,1-a]isoindol-2-yl]quinoline-8-carbonitrile] | < 3.2 nM |
| C[C@@H]1CN(c2ccc(C#N)c3ncccc23)C[C@@H]2c3ccc(OC[C@@H]4C[C@H](F)CN4)cc3CN12 [Example 74, 5-[(4R,10bS)-8-[[(2S,4S)-4-fluoropyrrolidin-2-yl]methoxy]-4-methyl-3,4,6,10b-tetrahydro-1H-pyrazino[2,1-a]isoindol-2-yl]quinoline-8-carbonitrile] | < 0.3 nM |
| C[C@@H]1CN(c2ccc(C#N)c3ncccc23)C[C@@H]2c3ccc(NC[C@@H]4CNCCO4)cc3CN12 [Example 58, 5-[(4R,10bS)-4-methyl-8-[[(2S)-morpholin-2-yl]methylamino]-3,4,6,10b-tetrahydro-1H-pyrazino[2,1-a]isoindol-2-yl]quinoline-8-carbonitrile] | < 3.2 nM |
| Cc1ccc(N2C[C@@H](C)N3Cc4cc(N[C@H]5CNC[C@H]5F)ccc4[C@H]3C2)c2nccnc12 [Example 76, (4R,10bS)—N-[(3S,4R)-4-fluoropyrrolidin-3-yl]-4-methyl-2-(8-methylquinoxalin-5-yl)-3,4,6,10b-tetrahydro-1H-pyrazino[2,1-a]isoindol-8-amine] | 12.7 nM |
| C[C@@H]1CN(c2ccc(C#N)c3ncccc23)C[C@@H]2c3cc(F)c(N4CC5CNCC(C4)O5)cc3CN12 [Example 85, 5-[(4R,10bS)-9-fluoro-4-methyl-8-(9-oxa-3,7-diazabicyclo[3.3.1]nonan-3-yl)-3,4,6,10b-tetrahydro-1H-pyrazino[2,1-a]isoindol-2-yl]quinoline-8-carbonitrile] | 9.2 nM |
| C[C@@H]1CN(c2ccc(C#N)c3ncccc23)C[C@@H]2c3ccc(N4CCNCC4)cc3CN12 [Example 1, 5-[(4R,10bS)-4-methyl-8-piperazin-1-yl-3,4,6,10b-tetrahydro-1H-pyrazino[2,1-a]isoindol-2-yl]quinoline-8-carbonitrile] | < 3.2 nM |
